# Reference: US20260325500A1, “METHODS AND COMPOSITIONS FOR TREATING ACUTE STRESS DISORDER” (BioXcel Therapeutics, Inc., priority 2022, published 2026)
# “Also recorded” adds a separate entry of the source. Structures can show the parent of a compound that is named as a salt.
# Tests used:
# [1] = test system: Yohimbine-induced noradrenergic mediated hyperarousal in Wistar rats; experiment: Elevated plus maze, yohimbine-induced noradrenergic mediated hyperarousal (Example 2); type: in vivo
# From the text: (§1) Background: Yohimbine is an alpha 2-adrenergic receptor antagonist reported to trigger panic attacks in healthy volunteers and to exacerbate symptoms in patients with panic disorder (Charney et al., 1992 Acta Psychiatr Scand., Vol. 86 (4): 273-282). Peripheral administration of Yohimbine causes noradrenergic mediated hyperarousal in rats as assessed by the EPM paradigm.
# (§2) Rationale: The drug yohimbine is a natural product used to test a specific pathway, noradrenergic-mediated hyper-arousal. It is well established that yohimbine is an alpha2-adrenergic receptor antagonist and activates the locus coeruleus (LC) and increases noradrenergic signaling (the opposite of alpha2-adrenergic agonists like dexmedetomidine and clonidine). Increased LC activity and noradrenergic signaling makes animals anxious and agitated which can be measured by using the elevated plus maze. In the elevated plus maze, rodents were in the closed arms and explored the open arms depending on their anxiety and agitation (rats and mice normally explore their environments extensively when calm). […] This behavior is correlated to increased level of anxiety caused by noradrenergic mediated hyperarousal.
# Animal groups: Male: Wistar rats were used in this study and were randomly divided to different experimental groups (12 animals per group).
# Study drugs: Four test drugs with different mechanisms of action linked to agitation were chosen to find drugs that are effective in reducing yohimbine-induced agitation: (1) Fluvoxamine (selective serotonin reuptake inhibitor) (2) Dextromethorphan (modulator of NMDA signals) (3) Diazepam (modulator of gamma-aminobutyric acid (GABA) as a positive control) and (4) Latrepirdine (complex pharmacology).
# The test drugs were procured from Sigma or Tocris. dextromethorphan from Sigma Aldrich, Cat No. D9684; latrepirdine from Sigma Aldrich, Cat No. D6196 or Tocris Cat No. 3201 diazepam and fluvoxamine Sigma Aldrich, Cat No. F2802 or Tocris, Cat No. 1033. All these test drugs were formulated in sufficient quantity in 0.9% saline except for fluvoxamine, which was formulated in 30% ethanol in 0.9% saline.
# Apparatus: Elevated Plus Maze (EPM) was used (FIG. 1). The maze consisted of two closed arms and two open arms forming a cross, with a square center platform. All visible surfaces were made of black acrylic. Each arm of the maze was placed on a support column above the floor. Antistatic black vinyl curtains used for surrounding the EPM to make an enclosure.
# Study design and dosing: Yohimbine was administered by intraperitoneal injection (i.p.) at a dose of 2.5 mg/kg (30 minutes prior to study) to induce agitation and the effects were assessed 30 minutes after yohimbine injection by measuring the number of open arm entries and exploration time in the EPM. The test drugs fluvoxamine, dextromethorphan and latrepirdine dihydrochloride hydrate were administered through intramuscular route and, diazepam through intraperitoneal route into the hindleg thigh muscle of rats (60 minutes prior to study; 30 minutes prior to yohimbine administration). Diazepam was injected 30 minutes intraperitonially prior to the assay i.e. along with yohimbine administration. The study design is illustrated in FIG. 2 and table 5.
# After the test drug administration, the rat was placed on the platform opposite a closed arm. The number of entries and the time spent in each arm were recorded during a 5 min period. The animal was considered as entered in arm when it placed its four paws into the arm.
# Statistical analysis: Analysis of variance (ANOVA) was performed on the result data. Fisher's PLSD was used for pairwise comparisons and p value≤0.05 was considered significant.
# [2] = test system: Yohimbine-induced noradrenergic hyperarousal in Wistar rats; experiment: Elevated plus maze, yohimbine-induced noradrenergic hyperarousal, dose response (Example 3); type: in vivo; details: for Percent increase as referred to the Vehicle level, Entries / Percent increase as referred to the Vehicle level, Time: 60 min
# From the text: as §1, §2
# Animal groups: Rats were distributed in 9 different experimental groups with 12 […] per group as illustrated in Table 6. Each experimental group was also coded so that the experimenter became unaware of the true experimental group at the time EPM trial.
# Acclimatization: Male Wistar rats (Janvier; Le Genest St Isle-France) were used for the study. They were purchased at a body weight of 150 g and reached a body weight of about 220 g at the time of use. They were group-housed (3-4 rats per cage) and maintained in a room with controlled temperature (21-22° C.) and a reversed light-dark cycle (12 h/12 h; lights on: 17:30-05:30; lights off: 05:30-17:30).
# Drug preparation: All compounds/drugs were prepared in normal saline (0.9% NaCl).
# Yohimbine was prepared at a solution of 2.5 mg/mL which when injected i.p. at a dosage volume of 1 mL/kg results in a dose of 2.5 mg/kg. Diazepam was prepared at a solution of 1 mg/mL which when injected i.p. at a dosage volume of 1 mL/kg results in a dose of 1 mg/kg. Latrepirdine dihydrochloride hydrate was prepared at a solution of 7.5, 2.5, 0.75 and 0.25 mg/mL which when injected i.m. at a volume of 100 μL for a rat of 250 g results in doses of 3; 1; 0.3 and 0.1 mg/kg; respectively. Latrepirdine dihydrochloride hydrate was also prepared at […] which when administrated i.p. at a dosage volume of 1 mL/kg results in a dose of 3 mg/kg.
# Experimental procedure: The rats were randomly assigned to one of the different experimental groups. Each animal was identified by its group name, cage number, series (day) of experiment, and a number (from 1 to 9) written with permanent ink on its tail. They were handled by an experimenter for about 3 min each day during 1 week prior to the day of EPM trial. The apparatus was a PVC maze covered with Plexiglas and subdivided into four equal exploratory arms (40×10 cm), which were all interconnected by a small platform (10×10 cm). The apparatus was placed 65 cm above the floor. Two arms were opened, and two others were closed with wall (high: 10 cm). After compound administration, rat was placed on the platform opposite a closed arm. The number of entries and the time spent in each arm were recorded during a 5 min period. The animal was considered as entered in an arm when it placed its four paws in the arm. The apparatus was cleaned between each animal using alcohol (70%). Urine and feces were removed from the maze. During the trials, animal handling and the visibility of the operator were minimized as much as possible.
# Statistical analysis: Analysis of variance (ANOVA) was performed on the result data. Fisher's PLSD was used for pairwise comparisons and p value≤0.05 were considered significant. […]
# [3] = 3 mg/kg and 10 mg/kg, i.m., 60 min prior, yohimbine 2.5 mg/kg i.p.
# [4] = 0.1 mg/kg, i.m., yohimbine hydrochloride 2.5 mg/kg i.p.
# [5] = 0.3 mg/kg, i.m., yohimbine hydrochloride 2.5 mg/kg i.p.
# [6] = 1 mg/kg, i.m., yohimbine hydrochloride 2.5 mg/kg i.p.
# [7] = 3 mg/kg, i.m., saline (yohimbine-free rats)
# [8] = 3 mg/kg, i.m., yohimbine hydrochloride 2.5 mg/kg i.p.
# [9] = 3 mg/kg, i.p., yohimbine hydrochloride 2.5 mg/kg i.p.
compound,measurement,setting,value
Cc1ccc2c(c1)c1c(n2CCc2ccc(C)nc2)CCN(C)C1 [latrepirdine dihydrochloride hydrate],"open arm entries and time spent, comparison with diazepam","[1]; 3 mg/kg and 10 mg/kg, i.m. versus diazepam 1 mg/kg, i.p.",comparable to diazepam
same,number of open arm entries,[1]; [3],significantly increased number of open arm entries; also recorded: significantly increased the number of entries into the open arms
same,time spent in the open arms (exploration time),[1]; [3],increased exploration time; also recorded: significantly increased
same,yohimbine-induced noradrenergic mediated hyperarousal,"[1]; latrepirdine 3 mg/kg and 10 mg/kg, i.m., yohimbine 2.5 mg/kg i.p.",reversed yohimbine-induced noradrenergic mediated hyperarousal
same,"Percent increase as referred to the Vehicle level, Entries",[2]; [4],21%
same,"Percent increase as referred to the Vehicle level, Time",[2]; [4],21%
same,"Percent increase as referred to the Vehicle level, Entries",[2]; [5],11%
same,"Percent increase as referred to the Vehicle level, Time",[2]; [5],73%
same,"Percent increase as referred to the Vehicle level, Entries",[2]; [6],106%
same,"Percent increase as referred to the Vehicle level, Time",[2]; [6],274%
same,EPM performance of saline-treated rats (yohimbine-free),[2]; 3 mg/kg i.m.,did not significantly modify the EPM performance
same,"EPM performance, i.m. compared with i.p. route","[2]; 3 mg/kg, yohimbine rats",comparable to that of specimens treated intraperitoneally
same,"Percent increase as referred to the Vehicle level, Entries",[2]; [7],167%
same,"Percent increase as referred to the Vehicle level, Time",[2]; [7],377%
same,"Percent increase as referred to the Vehicle level, Entries",[2]; [8],172%
same,"Percent increase as referred to the Vehicle level, Time",[2]; [8],392%
same,"Percent increase as referred to the Vehicle level, Entries",[2]; [9],183%
same,"Percent increase as referred to the Vehicle level, Time",[2]; [9],486%
same,noradrenergic mediated hyperarousal in yohimbine administered rats,[2]; 1 and 3 mg/kg,Conclusion: The results showed that latrepirdine dihydrochloride hydrate (at 1 and 3 mg/kg) significantly reduced noradrenergic mediated hyperarousal in yohimbine administered rats in dose-dependent manner (see table 7 and FIGS. 5 and 6).
same,"number of visits to and time spent into the open arms, significance","[2]; i.m., yohimbine administered rats, 0.1-3 mg/kg",effect was significant at the doses of 1 and 3 mg/kg
